Source: ChEMBL document CHEMBL5291721, “A preclinical secondary pharmacology resource illuminates target-adverse drug reaction associations of marketed drugs” (Nat Commun, 2023)

Tests used:
Androgen receptor [1] = molecular target: T1, Androgen receptor (Rattus norvegicus, UniProt P15207); assay type: functional
T1 sequence (P15207 whole entry): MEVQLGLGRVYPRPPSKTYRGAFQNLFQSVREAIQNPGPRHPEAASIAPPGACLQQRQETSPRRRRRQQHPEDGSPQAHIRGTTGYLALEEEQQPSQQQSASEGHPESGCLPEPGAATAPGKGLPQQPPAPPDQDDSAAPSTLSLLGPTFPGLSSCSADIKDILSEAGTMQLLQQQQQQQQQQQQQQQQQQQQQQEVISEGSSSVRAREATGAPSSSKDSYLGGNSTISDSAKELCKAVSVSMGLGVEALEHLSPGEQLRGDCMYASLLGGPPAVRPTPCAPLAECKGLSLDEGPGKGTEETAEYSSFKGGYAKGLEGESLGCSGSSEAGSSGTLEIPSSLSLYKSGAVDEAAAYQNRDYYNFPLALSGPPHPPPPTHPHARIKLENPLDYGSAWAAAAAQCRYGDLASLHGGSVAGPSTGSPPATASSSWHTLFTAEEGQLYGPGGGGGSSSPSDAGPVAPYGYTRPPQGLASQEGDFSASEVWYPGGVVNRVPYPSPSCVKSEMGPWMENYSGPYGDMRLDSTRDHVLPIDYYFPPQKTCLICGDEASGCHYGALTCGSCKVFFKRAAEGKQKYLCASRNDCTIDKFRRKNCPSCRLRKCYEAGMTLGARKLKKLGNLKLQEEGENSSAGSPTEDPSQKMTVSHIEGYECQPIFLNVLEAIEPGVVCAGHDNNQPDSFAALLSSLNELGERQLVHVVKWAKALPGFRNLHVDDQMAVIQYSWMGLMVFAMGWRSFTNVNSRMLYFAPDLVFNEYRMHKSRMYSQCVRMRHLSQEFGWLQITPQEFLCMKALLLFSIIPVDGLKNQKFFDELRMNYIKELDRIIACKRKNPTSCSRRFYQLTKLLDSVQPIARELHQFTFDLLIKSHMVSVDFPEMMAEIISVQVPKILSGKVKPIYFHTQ

Androgen receptor [2] = molecular target: T1, Androgen receptor; assay type: functional; remark: listed apart in the source
Androgen receptor [3] = molecular target: T1, Androgen receptor
[4] = molecular target: Neurotensin receptor type 1 (Homo sapiens, UniProt P30989)
Sequence of Neurotensin receptor type 1 (P30989 whole entry): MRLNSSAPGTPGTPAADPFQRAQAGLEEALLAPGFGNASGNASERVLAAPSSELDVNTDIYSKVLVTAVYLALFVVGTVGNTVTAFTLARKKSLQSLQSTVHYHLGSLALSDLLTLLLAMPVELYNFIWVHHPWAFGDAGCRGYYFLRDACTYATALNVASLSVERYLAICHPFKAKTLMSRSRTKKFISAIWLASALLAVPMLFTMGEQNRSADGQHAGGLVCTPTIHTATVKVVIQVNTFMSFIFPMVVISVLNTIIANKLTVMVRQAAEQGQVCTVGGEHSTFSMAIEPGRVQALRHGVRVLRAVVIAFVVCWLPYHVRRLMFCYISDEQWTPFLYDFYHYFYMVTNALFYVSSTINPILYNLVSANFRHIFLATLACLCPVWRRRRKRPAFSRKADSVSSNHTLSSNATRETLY

D(1A) dopamine receptor = D(1A) dopamine receptor (Homo sapiens, UniProt P21728)
Sequence of D(1A) dopamine receptor (P21728 whole entry): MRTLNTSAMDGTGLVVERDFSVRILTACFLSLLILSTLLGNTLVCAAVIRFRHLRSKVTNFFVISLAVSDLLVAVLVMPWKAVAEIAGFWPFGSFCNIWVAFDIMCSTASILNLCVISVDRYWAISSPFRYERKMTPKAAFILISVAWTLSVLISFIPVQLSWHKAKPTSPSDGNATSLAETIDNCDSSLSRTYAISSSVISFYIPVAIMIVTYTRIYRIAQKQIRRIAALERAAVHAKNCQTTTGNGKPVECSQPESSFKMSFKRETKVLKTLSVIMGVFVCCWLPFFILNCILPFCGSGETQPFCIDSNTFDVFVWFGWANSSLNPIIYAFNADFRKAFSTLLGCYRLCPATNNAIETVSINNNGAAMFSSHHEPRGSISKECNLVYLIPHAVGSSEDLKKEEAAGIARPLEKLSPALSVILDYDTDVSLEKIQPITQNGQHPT

[5] = molecular target: T2, Muscarinic acetylcholine receptor M2 (Homo sapiens, UniProt P08172)
T2 sequence (P08172 whole entry): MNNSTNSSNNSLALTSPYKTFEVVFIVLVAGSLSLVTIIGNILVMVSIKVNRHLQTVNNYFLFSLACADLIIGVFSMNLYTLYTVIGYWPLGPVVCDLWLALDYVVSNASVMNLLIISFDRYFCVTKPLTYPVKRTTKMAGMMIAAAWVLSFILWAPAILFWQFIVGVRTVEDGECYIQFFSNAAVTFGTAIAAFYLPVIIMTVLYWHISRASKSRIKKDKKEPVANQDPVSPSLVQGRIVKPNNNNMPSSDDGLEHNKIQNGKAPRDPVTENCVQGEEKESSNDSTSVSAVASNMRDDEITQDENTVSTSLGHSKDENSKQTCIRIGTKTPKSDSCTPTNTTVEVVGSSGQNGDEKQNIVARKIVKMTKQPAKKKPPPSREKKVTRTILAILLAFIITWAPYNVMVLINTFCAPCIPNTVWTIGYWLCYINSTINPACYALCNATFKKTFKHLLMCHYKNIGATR

[6] = molecular target: T3, Neuropeptide Y receptor type 2 (Homo sapiens, UniProt P49146)
T3 sequence (P49146 whole entry): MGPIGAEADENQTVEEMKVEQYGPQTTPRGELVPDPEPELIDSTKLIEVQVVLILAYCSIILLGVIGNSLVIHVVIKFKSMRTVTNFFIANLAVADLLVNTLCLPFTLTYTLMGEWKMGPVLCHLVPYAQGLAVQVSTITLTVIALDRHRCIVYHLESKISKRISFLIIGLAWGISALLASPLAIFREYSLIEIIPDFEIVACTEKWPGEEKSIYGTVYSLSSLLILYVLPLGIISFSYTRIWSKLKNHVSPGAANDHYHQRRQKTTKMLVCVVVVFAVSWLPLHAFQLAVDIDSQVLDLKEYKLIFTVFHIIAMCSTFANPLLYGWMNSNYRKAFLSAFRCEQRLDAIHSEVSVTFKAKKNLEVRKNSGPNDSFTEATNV

[7] = molecular target: 5-hydroxytryptamine receptor 2B (Homo sapiens, UniProt P41595)
Sequence of 5-hydroxytryptamine receptor 2B (P41595 whole entry): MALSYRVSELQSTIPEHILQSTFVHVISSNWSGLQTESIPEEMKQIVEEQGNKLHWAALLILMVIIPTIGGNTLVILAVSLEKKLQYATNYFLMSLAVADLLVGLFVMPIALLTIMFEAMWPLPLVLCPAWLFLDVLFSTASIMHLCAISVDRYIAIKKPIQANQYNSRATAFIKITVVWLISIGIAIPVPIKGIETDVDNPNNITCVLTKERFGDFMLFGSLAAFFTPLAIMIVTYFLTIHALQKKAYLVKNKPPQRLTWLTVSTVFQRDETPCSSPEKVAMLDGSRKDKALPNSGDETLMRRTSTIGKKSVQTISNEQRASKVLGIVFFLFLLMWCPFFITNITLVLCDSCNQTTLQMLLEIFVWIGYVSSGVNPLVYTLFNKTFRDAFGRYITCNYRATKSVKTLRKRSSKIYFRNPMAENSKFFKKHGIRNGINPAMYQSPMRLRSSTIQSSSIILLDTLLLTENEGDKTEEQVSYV

Progesterone receptor = molecular target: T4, Progesterone receptor (Homo sapiens, UniProt P06401)
T4 sequence (P06401 whole entry): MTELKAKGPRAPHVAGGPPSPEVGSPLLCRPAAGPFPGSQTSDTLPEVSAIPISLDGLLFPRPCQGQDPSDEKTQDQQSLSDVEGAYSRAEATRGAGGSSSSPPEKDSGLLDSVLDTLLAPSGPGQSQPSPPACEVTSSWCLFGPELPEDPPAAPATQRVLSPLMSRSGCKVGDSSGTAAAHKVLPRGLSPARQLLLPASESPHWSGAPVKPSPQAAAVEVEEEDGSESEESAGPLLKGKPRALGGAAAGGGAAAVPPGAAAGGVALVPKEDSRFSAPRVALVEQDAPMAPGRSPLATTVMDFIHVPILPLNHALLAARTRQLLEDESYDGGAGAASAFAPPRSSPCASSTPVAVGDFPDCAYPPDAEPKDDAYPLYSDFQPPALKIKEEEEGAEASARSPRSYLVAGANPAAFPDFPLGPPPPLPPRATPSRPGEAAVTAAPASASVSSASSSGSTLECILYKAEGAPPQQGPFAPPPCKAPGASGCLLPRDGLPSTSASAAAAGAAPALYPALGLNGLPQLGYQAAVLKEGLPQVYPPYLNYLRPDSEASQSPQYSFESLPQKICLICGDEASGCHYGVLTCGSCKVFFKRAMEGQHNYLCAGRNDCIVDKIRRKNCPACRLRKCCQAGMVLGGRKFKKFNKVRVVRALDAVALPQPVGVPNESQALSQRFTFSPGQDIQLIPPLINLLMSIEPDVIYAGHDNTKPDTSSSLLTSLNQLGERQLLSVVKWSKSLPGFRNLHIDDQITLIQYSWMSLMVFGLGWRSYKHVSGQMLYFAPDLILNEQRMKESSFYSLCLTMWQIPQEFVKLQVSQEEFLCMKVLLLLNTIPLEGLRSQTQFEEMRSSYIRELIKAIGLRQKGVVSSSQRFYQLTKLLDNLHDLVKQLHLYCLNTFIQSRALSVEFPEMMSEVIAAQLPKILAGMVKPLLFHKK
Further: assay procedure not described here.

| Structure (SMILES) | AC50 (Androgen receptor [1]) [µM] | AC50 (Androgen receptor [2]) [µM] | AC50 (D(1A) dopamine receptor) [µM] | AC50 [5] [µM] | AC50 [6] [µM] | AC50 [7] [µM] | further results |
| --- | --- | --- | --- | --- | --- | --- | --- |
| C[N+](C)(C)CCOP(=O)([O-])OC[C@H](O)CO | > 30 | > 30 | – | – | – | – | – |
| CN(C)Cc1nnc2n1-c1ccc(Cl)cc1C(c1ccccc1)=NC2 [ADINAZOLAM] | – | – | – | – | – | – | AC50 (Androgen receptor [3]): > 10 µM |
| CN(C)C/C=C/C(=O)Nc1cc2c(Nc3ccc(F)c(Cl)c3)ncnc2cc1O[C@H]1CCOC1 [AFATINIB] | > 30 | > 30 | – | – | – | – | – |
| Cc1ccccc1-n1c(CF)nc2ccc(N)cc2c1=O [AFLOQUALONE] | – | – | – | – | – | – | AC50 (Androgen receptor [3]): > 30 µM |
| CCC1(c2ccc(N)cc2)CCC(=O)NC1=O (stereo not given) [AMINOGLUTETHIMIDE] | > 30 | > 30 | – | – | – | – | – |
| O=C(/C=C/c1cccc(S(=O)(=O)Nc2ccccc2)c1)NO [BELINOSTAT] | – | – | > 10 | > 10 | > 10 | > 10 | AC50 [4]: > 10 µM; AC50 (Androgen receptor [3]): > 30 µM; AC50 (Progesterone receptor): > 30 µM |
| CC(O)(CS(=O)(=O)c1ccc(F)cc1)C(=O)Nc1ccc(C#N)c(C(F)(F)F)c1 (stereo not given) [BICALUTAMIDE] | – | – | > 10 | > 10 | > 30 | > 10 | AC50 [4]: > 30 µM; AC50 (Progesterone receptor): > 30 µM |
| O=C(O)COCCN1CCN(C(c2ccccc2)c2ccc(Cl)cc2)CC1 (stereo not given) [CETIRIZINE] | – | – | – | – | > 30 | – | AC50 [4]: > 30 µM; AC50 (Progesterone receptor): > 30 µM |
| CC(=O)O[C@]1(C(C)=O)CC[C@H]2[C@@H]3C=C(Cl)C4=CC(=O)[C@@H]5C[C@@H]5[C@]4(C)[C@H]3CC[C@@]21C [CYPROTERONE ACETATE] | – | – | > 10 | > 10 | – | > 10 | – |
| C[C@@H]1C[C@H]2[C@@H]3C[C@H](F)C4=CC(=O)C=C[C@]4(C)[C@@]3(F)[C@@H](O)C[C@]2(C)[C@@]1(OC(=O)c1ccco1)C(=O)SCF [FLUTICASONE FUROATE] | – | – | > 10 | > 10 | > 10 | > 10 | – |
| COc1ccc([C@@H]2CC(=O)c3c(O)cc(O)cc3O2)cc1O [HESPERETIN] | – | – | – | – | – | – | AC50 (Androgen receptor [3]): > 10 µM |
| CNCCc1ccc(OC(=O)C(C)C)c(OC(=O)C(C)C)c1 [IBOPAMINE] | > 30 | > 30 | – | – | – | – | – |
| CN(C)CCCN1c2ccccc2CCc2ccccc21 [IMIPRAMINE] | – | – | 3.2 | 0.454 | > 30 | 0.319 | AC50 [4]: > 30 µM; AC50 (Progesterone receptor): > 30 µM |
| CCOC(=O)C1=C(C)NC(C)=C(C(=O)OCC)C1c1ccccc1/C=C/C(=O)OC(C)(C)C [LACIDIPINE] | > 30 | > 30 | – | – | – | – | – |
| C=C1c2cccc(O)c2C(=O)C2=C(O)[C@]3(O)C(=O)C(C(N)=O)=C(O)[C@@H](N(C)C)[C@@H]3[C@@H](O)[C@H]12 [METHACYCLINE] | – | – | – | – | – | – | AC50 (Androgen receptor [3]): > 30 µM |
| CN(Cc1cnc2nc(N)nc(N)c2n1)c1ccc(C(=O)N[C@@H](CCC(=O)O)C(=O)O)cc1 [METHOTREXATE] | – | – | > 10 | > 10 | > 30 | > 10 | AC50 [4]: > 30 µM; AC50 (Androgen receptor [3]): > 30 µM; AC50 (Progesterone receptor): > 30 µM |
| CC(C)c1cccc(C(C)C)c1O [PROPOFOL] | > 30 | – | – | – | – | – | – |
| CN[C@@H](C)[C@@H](O)c1ccccc1 [PSEUDOEPHEDRINE] | – | – | > 10 | > 10 | > 30 | – | AC50 [4]: > 30 µM; AC50 (Progesterone receptor): > 30 µM |
| CCCN1CC(NS(=O)(=O)N(CC)CC)CC2Cc3c(O)cccc3CC21 (stereo not given) [QUINAGOLIDE] | > 30 | > 30 | – | – | – | 0.324 | – |
| O=C1OC(OC(=O)c2cccnc2Nc2cccc(C(F)(F)F)c2)c2ccccc21 (stereo not given) [TALNIFLUMATE] | > 30 | > 30 | – | – | – | – | – |
| O=S1(=O)CCN(CN2CCS(=O)(=O)NC2)CN1 [TAUROLIDINE] | > 30 | > 30 | – | – | – | – | – |
| CCOC(=O)c1c(CSc2ccccc2)n(C)c2cc(Br)c(O)c(CN(C)C)c12 [UMIFENOVIR] | > 30 | > 30 | – | – | – | – | – |
